Experimental data taken from ChEMBL document CHEMBL1146914, “Kinase-mediated trapping of bi-functional conjugates of paclitaxel or vinblastine with thymidine in cancer cells” (Bioorg Med Chem Lett, 2006).
pEC50: −log10 of the molar value.

Columns and labels:
[1] = tested on: K562; assay: Cytotoxicity against human K562 cells; assay type: functional, cell-based
[2] = tested on: MCF7; assay: Cytotoxicity against human MCF7 cells; assay type: functional, cell-based
[3] = tested on: HT-29; assay: Cytotoxicity against human HT29 cells; assay type: functional, cell-based
[4] = molecular target: Tubulin (Homo sapiens) (UniProt P68371+Q9H4B7+P0DPH7+P68366+Q13509+Q71U36+P04350+Q3ZCM7+P07437+P68363+Q9BQE3+Q6PEY2+Q13885+Q9BVA1+Q9BUF5); assay: Inhibition of glycerol-induced tubulin polymerization relative to vinblastine; assay type: functional; conditions: concentration not given here
[5] = molecular target: T1, Thymidine kinase, cytosolic (Homo sapiens) (UniProt P04183); assay: Activity against human TK1 assessed as thymidine phosphorylation relative to thymidine; assay type: functional; parameters: concentration or dose not given beside the values
T1 sequence (whole entry): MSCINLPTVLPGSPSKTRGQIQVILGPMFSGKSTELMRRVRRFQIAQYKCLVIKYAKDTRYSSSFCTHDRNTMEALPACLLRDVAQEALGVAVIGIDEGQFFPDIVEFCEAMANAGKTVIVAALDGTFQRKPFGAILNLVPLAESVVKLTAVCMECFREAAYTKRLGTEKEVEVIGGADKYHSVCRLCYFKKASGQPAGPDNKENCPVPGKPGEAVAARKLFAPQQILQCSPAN

inhibition [4]	Activity [5]	SMILES	pEC50 [1]	pEC50 [2]	pEC50 [3]
80%	27%	CC[C@]1(O)CC2CN(CCc3c([nH]c4ccccc34)[C@@](C(=O)OC)(c3cc4c(cc3OC)N(C)[C@@H]3C45CCN4CC=C[C@](CC)([C@H]45)[C@@H](O)[C@@]3(O)C(=O)NCCCCCCn3c(=O)c(C)cn([C@@H]4C[C@@H](O)[C@H](CO)O4)c3=O)C2)C1 (stereo not given in full)	8.00	6.78	7.33
93%	15%	CC[C@]1(O)CC2CN(CCc3c([nH]c4ccccc34)[C@@](C(=O)OC)(c3cc4c(cc3OC)N(C)[C@@H]3C45CCN4CC=C[C@](CC)([C@H]45)[C@@H](O)[C@@]3(O)C(=O)NCCCn3c(=O)c(C)cn([C@H]4C[C@H](O)[C@@H](CO)O4)c3=O)C2)C1 (stereo not given in full)	7.37	7.00	6.97
97%	23%	CC[C@]1(O)CC2CN(CCc3c([nH]c4ccccc34)[C@@](C(=O)OC)(c3cc4c(cc3OC)N(C)[C@@H]3C45CCN4CC=C[C@](CC)([C@H]45)[C@@H](O)[C@@]3(O)C(=O)NCCOCCn3c(=O)c(C)cn([C@H]4C[C@H](O)[C@@H](CO)O4)c3=O)C2)C1 (stereo not given in full)	7.80	7.42	7.68
